Test results from patent US20230114728A1 (Venatorx Pharmaceuticals, Inc., priority 2019, published 2023).
In brackets after ≈: the same amount, converted by molar mass.

Tests used:
E. coli K12 PBP3 = target: T1, E. coli K12 PBP3 (Escherichia coli, UniProt P0AD68); test: biochemical; assay type: binding
T1 construct: made in house
Method in brief: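 Fluorescence polarization (ex 490/em 520 nm) competition of inhibitors against Bocillin-FL at 0.1 μM, read up to 60 min. Final PBP levels: E. coli PBP3 1.5 μM; A. baumannii PBP2 2.5 μM, PBP3 0.2 μM in Tris pH 8.0/NaCl/glycerol/Tween 20; N. gonorrhoeae PBP2 […] in Hepes pH 8.0/NaCl/glycerol. EC50 = concentration halving PBP-bound Bocillin-FL.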

A. baumannii ATCC 19606 = test: Broth microdilution MIC in CAMHB; assay type: cell-based; conditions: Acinetobacter baumannii, ATCC19606; MHB; read-out: Minimum Inhibitory Concentration, A. baumannii ATCC 19606
Method in brief: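 Colonies from cation-adjusted Mueller Hinton agar are grown in broth (3-5 h, 37° C), adjusted by OD600, and added at 2-8×10^5 CFU/mL to 2-fold compound dilutions. After 16-20 h at 37° C, the lowest concentration without growth is taken as MIC.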

E. coli 901C = test: Broth microdilution MIC in CAMHB; assay type: cell-based; conditions: Escherichia coli; E. coli 901C (hyper-permeable); MHB; read-out: Minimum Inhibitory Concentration, E. coli 901C
Method in brief: (§1)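 CLSI broth microdilution in CAMHB: 2-fold compound dilutions inoculated at 2-8×10^5 CFU/mL from 3-5 h log-phase cultures. Incubated at 37 °C for 16-20 h (Enterobacteriaceae, Pseudomonas); MIC read visually as lowest concentration without growth. Strains include hyper-permeable and efflux-deficient mutants.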

E. coli AG100A = test: Broth microdilution MIC in CAMHB; assay type: cell-based; conditions: Escherichia coli, read-out: Minimum Inhibitory Concentration, E. coli AG100A
Method in brief: as §1

E. coli AG100 = test: Broth microdilution MIC in CAMHB; assay type: cell-based; conditions: Escherichia coli; E. coli AG100 (wild-type parent); MHB; read-out: Minimum Inhibitory Concentration, E. coli AG100
Method in brief: as §1

E. coli ATCC 25922 = test: Broth microdilution MIC in CAMHB; assay type: cell-based; conditions: Escherichia coli, ATCC25922; E. coli ATCC 25922; MHB; read-out: Minimum Inhibitory Concentration, E. coli 25922
Method in brief: as §1

E. coli D22 = test: Broth microdilution MIC in CAMHB; assay type: cell-based; conditions: Escherichia coli; E. coli D22 (hyper-permeable); MHB; read-out: Minimum Inhibitory Concentration, E. coli D22
Method in brief: as §1

[1] = tested on: K. pneumoniae 848844 producing SHV-11 and KPC-2; test: Broth microdilution MIC in CAMHB; assay type: cell-based; conditions: Klebsiella pneumoniae, read-out: Minimum Inhibitory Concentration, K. pneumoniae 848844
Method in brief: as §1

[2] = tested on: K. pneumoniae SI-117 producing VIM-1; test: Broth microdilution MIC in CAMHB; assay type: cell-based; conditions: Klebsiella pneumoniae, read-out: Minimum Inhibitory Concentration, K. pneumoniae SI-117
Method in brief: as §1

[3] = tested on: K. pneumoniae UMM producing SHV-5 and KPC-2; test: Broth microdilution MIC in CAMHB; assay type: cell-based; conditions: Klebsiella pneumoniae, read-out: Minimum Inhibitory Concentration, K. pneumoniae UMM
Method in brief: as §1

[4] = tested on: P. aeruginosa (ΔmexAB-oprM); test: Broth microdilution MIC in CAMHB; assay type: cell-based; conditions: Pseudomonas aeruginosa, read-out: Minimum Inhibitory Concentration, P. aeruginosa ΔmexAB-OprM
Method in brief: as §1

P. aeruginosa ATCC 35151 = test: Broth microdilution MIC in CAMHB; assay type: cell-based; conditions: Pseudomonas aeruginosa, ATCC35151; MHB; hyper-permeable strain; read-out: Minimum Inhibitory Concentration, P. aeruginosa ATCC 35151
Method in brief: as §1

P. aeruginosa PAO1 = test: Broth microdilution MIC in CAMHB; assay type: cell-based; conditions: Pseudomonas aeruginosa, MHB, read-out: Minimum Inhibitory Concentration, P. aeruginosa PAO1
Experimental: To determine the ability of test compounds to inhibit the growth of bacterial strains, classic cell based broth microdilution minimum inhibitory concentration (MIC) assays were employed. MIC assays are performed according to CLSI methods except where otherwise noted (CLSI, 2018 and CLSI, 2019). The reference type strain E. coli ATCC 25922; the wild-type parent strain E. coli AG100; the hyper-permeable E. coli 901C and E. coli D22; and the E. coli AG100A strain lacking the acrAB efflux pump encoding genes were used to determine the ability of the PBP inhibitors to penetrate the outer membrane of gram-negative bacteria and inhibit bacterial growth. […] The P. aeruginosa ATCC 27853 and A. baumannii ATCC 19606, along with the hyper-permeable P. aeruginosa ATCC 35151 and an engineered efflux pump-compromised strain of P. aeruginosa (ΔmexAB-oprM) were used to determine the ability of PBP inhibitors to penetrate the outer membrane of P. aeruginosa and A. baumannii and assess antibacterial activity against these important gram-negative organisms.
Briefly, cryo-preserved bacterial cultures of challenge strains are streaked for isolation on appropriate agar medium, in this case cation-adjusted Mueller Hinton agar. Following incubation to allow growth of the colonies, plates are sealed with parafilm and stored refrigerated for up to two weeks. For preparation of assay inoculum and to ensure low variability, at least 5 colonies are picked from the agar plates with an inoculating loop and aseptically transferred to a culture tube containing 3 mL of cation-adjusted Mueller Hinton broth (CAMHB). The broth culture is grown for 3-5 hours at 37° C. with shaking at 200 rpm. Meanwhile, 2-fold serial dilutions of test compounds are conducted in a 96-well plate with a final volume of 75 μL per well at 2-fold the final desired concentration. After the dilution plates are set up the growing cultures are then diluted in a cuvette containing CAMHB and the optical density is measured at 600 nm. The inoculum is diluted such that 75 μL of this culture in CAMHB results in a starting bacterial concentration of 2-8×10^5 CFU/mL when added to the dilution plates. The plates are incubated for 16-20 hours for Enterobacteriaceae and Pseudomonas and 20-24 hours for Acinetobacter at 37° C. The MIC values are read visually as the lowest concentration well with no bacterial growth.

P. aeruginosa PBP3 = target: T2, P. aeruginosa PBP3 (Pseudomonas aeruginosa, UniProt G3XD46); test: Bocillin-FL fluorescence polarization competition binding assay, P. aeruginosa PBP3; conditions: fluorescence polarization competition binding assay using Bocillin-FL
T2 construct: made in house
Method in brief: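 Binding of boronic acid inhibitors to purified Pseudomonas aeruginosa (PA01) PBP3 was measured by fluorescence polarization competition with Bocillin-FL, a fluorescent penicillin V. Reactions of 80 μl contained 0.75 μM PBP3 and 0.1 μM Bocillin-FL in 50 mM Hepes (pH 8.0), 300 mM NaCl and 5% (v/v) glycerol, in black 384-well plates. FP (Excitation 490 nm, Emission 520 nm) was read for up to 60 minutes. EC50 is the concentration that halves PBP-bound Bocillin-FL.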

T2 sequence (G3XD46 whole entry): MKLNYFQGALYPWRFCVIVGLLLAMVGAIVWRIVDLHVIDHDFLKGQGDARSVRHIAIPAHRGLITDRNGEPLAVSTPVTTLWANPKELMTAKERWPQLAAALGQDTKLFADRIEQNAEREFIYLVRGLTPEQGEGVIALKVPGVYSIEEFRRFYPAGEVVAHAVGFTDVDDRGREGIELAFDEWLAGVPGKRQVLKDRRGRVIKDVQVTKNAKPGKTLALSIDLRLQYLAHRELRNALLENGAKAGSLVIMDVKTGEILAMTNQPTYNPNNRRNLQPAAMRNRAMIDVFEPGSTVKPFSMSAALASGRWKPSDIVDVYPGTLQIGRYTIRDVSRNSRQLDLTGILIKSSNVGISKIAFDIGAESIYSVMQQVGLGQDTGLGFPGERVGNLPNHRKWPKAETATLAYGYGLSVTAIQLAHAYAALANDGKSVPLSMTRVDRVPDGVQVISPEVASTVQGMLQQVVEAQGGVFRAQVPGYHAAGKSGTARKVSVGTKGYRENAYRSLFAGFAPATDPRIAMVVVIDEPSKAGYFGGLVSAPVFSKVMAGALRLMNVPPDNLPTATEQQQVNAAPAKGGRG
T1 sequence (P0AD68 1-577): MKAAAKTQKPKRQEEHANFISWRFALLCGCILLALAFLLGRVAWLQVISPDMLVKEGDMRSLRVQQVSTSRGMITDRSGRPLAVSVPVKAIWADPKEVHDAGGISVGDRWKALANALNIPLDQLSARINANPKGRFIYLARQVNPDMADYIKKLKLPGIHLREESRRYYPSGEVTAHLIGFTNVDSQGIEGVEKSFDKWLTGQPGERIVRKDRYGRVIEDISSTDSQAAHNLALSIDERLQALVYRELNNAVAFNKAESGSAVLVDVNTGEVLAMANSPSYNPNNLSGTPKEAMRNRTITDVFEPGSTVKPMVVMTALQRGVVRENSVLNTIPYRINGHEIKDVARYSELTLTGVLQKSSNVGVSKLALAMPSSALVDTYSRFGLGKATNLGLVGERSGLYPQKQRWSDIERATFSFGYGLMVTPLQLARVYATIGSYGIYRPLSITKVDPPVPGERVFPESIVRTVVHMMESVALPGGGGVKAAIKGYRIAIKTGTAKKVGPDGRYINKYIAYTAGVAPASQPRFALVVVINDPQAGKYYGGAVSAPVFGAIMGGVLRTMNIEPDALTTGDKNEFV

Row | SMILES | EC50 (E. coli K12 PBP3) [µM] | MIC (A. baumannii ATCC 19606) [µg/mL] | MIC (E. coli 901C) [µg/mL] | MIC (E. coli AG100A) [µg/mL] | MIC (E. coli AG100) [µg/mL] | MIC (E. coli ATCC 25922) [µg/mL] | MIC (E. coli D22) [µg/mL] | MIC [1] [µg/mL] | MIC [2] [µg/mL] | MIC [3] [µg/mL] | MIC [4] [µg/mL] | MIC (P. aeruginosa ATCC 35151) [µg/mL] | MIC (P. aeruginosa PAO1) [µg/mL] | P. aeruginosa PBP3 Potency (P. aeruginosa PBP3)
1 | CCN1CCN(C(=O)NC(C(=O)N[C@H]2Cc3ccc(SC)c(C(=O)O)c3OB2O)c2csc(N)n2)C(=O)C1=O (stereo partly drawn) [Example 56, (3R)-3-(2-(2-aminothiazol-4-yl)-2-(4-ethyl-2,3-dioxopiperazine-1-carboxamido)acetamido)-2-hydroxy-7-(methylthio)-3,4-dihydro-2H-benzo[e][1,2]oxaborinine-8-carboxylic acid] | 30 to 500 | > 128 | 0.5 to 1 (≈ 0.867 to 1.73 µM) | 8 to 16 (≈ 13.9 to 27.8 µM) | 32 to 64 (≈ 55.5 to 111 µM) | 32 to 64 (≈ 55.5 to 111 µM) | 8 to 16 (≈ 13.9 to 27.8 µM) | 32 to 64 (≈ 55.5 to 111 µM) | 32 to 64 (≈ 55.5 to 111 µM) | 8 to 16 (≈ 13.9 to 27.8 µM) | 32 to 64 (≈ 55.5 to 111 µM) | 0.5 to 1 (≈ 0.867 to 1.73 µM) | > 128 | 
2 | CCN1CCN(C(=O)NC(C(=O)N[C@H]2Cc3ccc(O)c(C(=O)O)c3OB2O)c2ccccc2)C(=O)C1=O (stereo partly drawn) [Example 61, (3R)-3-(2-(4-ethyl-2,3-dioxopiperazine-1-carboxamido)-2-phenylacetamido)-2,7-dihydroxy-3,4-dihydro-2H-benzo[e][1,2]oxaborinine-8-carboxylic acid] |  | > 128 | 0.5 to 1 (≈ 0.954 to 1.91 µM) | 32 to 64 (≈ 61 to 122 µM) | 32 to 64 (≈ 61 to 122 µM) | 32 to 64 (≈ 61 to 122 µM) | 8 to 16 (≈ 15.3 to 30.5 µM) | > 128 | > 128 | > 128 | > 128 | 8 to 16 (≈ 15.3 to 30.5 µM) | > 128 | B (B represents a potency between 30 μM and 500 μM inclusive)
3 | CCN1CCN(C(=O)NC(C(=O)N[C@H]2Cc3ccc(C=NOCCN)c(C(=O)O)c3OB2O)c2csc(N)n2)C(=O)C1=O (stereo partly drawn) [Example 62, (3R)-7-(((2-aminoethoxy)imino)methyl)-3-(2-(2-aminothiazol-4-yl)-2-(4-ethyl-2,3-dioxopiperazine-1-carboxamido)acetamido)-2-hydroxy-3,4-dihydro-2H-benzo[e][1,2]oxaborinine-8-carboxylic acid] | > 500 | > 128 | 32 to 64 (≈ 51.9 to 104 µM) | 32 to 64 (≈ 51.9 to 104 µM) | > 128 | > 128 | 32 to 64 (≈ 51.9 to 104 µM) | > 128 | > 128 | > 128 | > 128 | 8 to 16 (≈ 13 to 26 µM) | > 128 | B (B represents a potency between 30 μM and 500 μM inclusive)
4 | CCN1CCN(C(=O)NC(C(=O)N[C@H]2Cc3ccc(C(F)(F)F)c(C(=O)O)c3OB2O)c2csc(N)n2)C(=O)C1=O (stereo partly drawn) [Example 63, (3R)-3-(2-(2-aminothiazol-4-yl)-2-(4-ethyl-2,3-dioxopiperazine-1-carboxamido)acetamido)-2-hydroxy-7-(trifluoromethyl)-3,4-dihydro-2H-benzo[e][1,2]oxaborinine-8-carboxylic acid] | > 500 | > 128 | 8 to 16 (≈ 13.4 to 26.7 µM) | > 128 | > 128 | > 128 | > 128 | > 128 | > 128 | > 128 | > 128 | 8 to 16 (≈ 13.4 to 26.7 µM) | > 128 | B (B represents a potency between 30 μM and 500 μM inclusive)
5 | CCN1CCN(C(=O)NC(C(=O)N[C@H]2Cc3ccc(SCC[N+]4(C)CCCC4)c(C(=O)O)c3OB2O)c2csc(N)n2)C(=O)C1=O.O=C([O-])C(F)(F)F (stereo partly drawn) [Example 65, 1-(2-(((3R)-3-(2-(2-aminothiazol-4-yl)-2-(4-ethyl-2,3-dioxopiperazine-1-carboxamido)acetamido)-8-carboxy-2-hydroxy-3,4-dihydro-2H-benzo[e][1,2]oxaborinin-7-yl)thio)ethyl)-1-methylpyrrolidin-1-ium 2,2,2-trifluoroacetate] | > 500 | > 128 | 32 to 64 | 32 to 64 | > 128 | > 128 | > 128 | > 128 | > 128 | > 128 | > 128 | 8 to 16 | > 128 | 
6 | CCN1CCN(C(=O)NC(C(=O)N[C@H]2Cc3ccc(SCCNCCN)c(C(=O)O)c3OB2O)c2csc(N)n2)C(=O)C1=O (stereo partly drawn) [Example 66, (3R)-7-((2-((2-aminoethyl)amino)ethyl)thio)-3-(2-(2-aminothiazol-4-yl)-2-(4-ethyl-2,3-dioxopiperazine-1-carboxamido)acetamido)-2-hydroxy-3,4-dihydro-2H-benzo[e][1,2]oxaborinine-8-carboxylic acid] | > 500 | > 128 | 32 to 64 (≈ 49.3 to 98.7 µM) | 32 to 64 (≈ 49.3 to 98.7 µM) | > 128 | > 128 | 32 to 64 (≈ 49.3 to 98.7 µM) | > 128 | > 128 | > 128 | > 128 | 8 to 16 (≈ 12.3 to 24.7 µM) | > 128 | 
7 | CCN1CCN(C(=O)NC(C(=O)N[C@H]2Cc3ccc(SCCN)c(C(=O)O)c3OB2O)c2csc(N)n2)C(=O)C1=O (stereo partly drawn) [Example 67, (3R)-7-((2-aminoethyl)thio)-3-(2-(2-aminothiazol-4-yl)-2-(4-ethyl-2,3-dioxopiperazine-1-carboxamido)acetamido)-2-hydroxy-3,4-dihydro-2H-benzo[e][1,2]oxaborinine-8-carboxylic acid] | 30 to 500 | > 128 | 0.5 to 1 (≈ 0.826 to 1.65 µM) | 32 to 64 (≈ 52.9 to 106 µM) | > 128 | 32 to 64 (≈ 52.9 to 106 µM) | 8 to 16 (≈ 13.2 to 26.4 µM) | > 128 | 32 to 64 (≈ 52.9 to 106 µM) | 32 to 64 (≈ 52.9 to 106 µM) | 32 to 64 (≈ 52.9 to 106 µM) | 0.5 to 1 (≈ 0.826 to 1.65 µM) | > 128 | 
